# Earlier results, collected in patent US11744998B2, “Drug delivery devices with drug-permeable component and methods” (TARIS Biomedical LLC, priority 2015, dated 2023).
# Where a name gives a salt, the structure may show the parent alone.
# Settings: water at 37° C.
row,Structure (SMILES),approximate solubility [mg/mL]
1,Nc1ccn([C@@H]2O[C@H](CO)[C@@H](O)C2(F)F)c(=O)n1 [gemcitabine base],~15
2,Cc1ccc(O)c([C@H](CCN(C(C)C)C(C)C)c2ccccc2)c1 [tolterodine tartrate],~12
3,O=C(O[C@H]1C[C@H]2CC[C@@H](C1)[N+]21CCCC1)C(O)(c1ccccc1)c1ccccc1 [trospium chloride],~500
4,Nc1ccn([C@@H]2O[C@H](CO)[C@@H](O)C2(F)F)c(=O)n1 [gemcitabine HCl],~80
